From patent publication US20070166710A1, “Methods for inhibiting adipogenesis and for treating type 2 diabetes” (priority 2003, published 2007)

Legend:
[1] = test system: Pref-1, Hk-2, m2Pk, Glut-4 and Ucp-2/3; experiment: Expression of putative Foxa-2 target genes in primary adipocytes cultured with insulin; assay type: cell-based, mice; details: 100 nM insulin for 60 hours vs untreated adipocytes
[2] = test system: Foxa-2; experiment: Nuclear Foxa-2 in perfused livers, immunoblotting; assay type: in vivo, mice
[3] = test system: Pepck, G6pc and Igfbp-1; experiment: mRNA levels of Foxa-2 target genes in primary hepatocytes (RT-PCR); assay type: cell-based; details: insulin alone (50 nM, 6 hours)
Description: FIGS. 10a-d depict the effect of insulin on Foxa-2 activity. FIG. 10a is a bar graph depicting relative Foxa-2 activity in HepG2 cells transfected with an expression vector for Foxa-2 and […]-Luc (gray bars) or p6xCdx-TkLuc (black bars). Cells were treated with insulin alone or in the presence of Ly294002 or PD98059. FIG. 10b is a bar graph depicting relative Foxa-2 activity in HepG2 cells transfected with p6xCdx-TkLuc and treated with insulin alone or in the presence of Ly294002 or PD98059. […] FIG. 10d is a bar graph depicting relative Foxa-2 activity in HepG2 cells transfected with an expression vector for Foxa-1, Foxa-2, Akt or Akt[…] alone or in combination, using p6xCdx-TkLuc as reporter gene. In all experiments luciferase activity was normalized to β-Gal activity. […] Levels of mRNA were analyzed to determine whether inhibition of Foxa-2 target gene expression by insulin is controlled at a transcriptional or posttranscriptional level. The mRNA levels of Pepck, G6pc and Igfbp-1 in primary hepatocytes that were cultured either in the presence or absence of insulin, PI3-kinase or MAPKK1 inhibitors were measured.

[4] = test system: Foxa-2 expression; experiment: Foxa-2 gene expression in stromal vascular cells (preadipocytes) of lean and obese mice; assay type: cell-based; details: 100 nM insulin, 24 and 60 hours
Description: Gene expression was analyzed in a vasculo-stromal fraction (containing preadipocytes) of wildtype and ob/ob mice that were cultured in the absence (−) or presence of 100 nM insulin for 24 and 60 hours.
Stromal vascular cells from ob/ob mice are known to have increased cell replication in vitro and accumulate little triglycerides when cultured in differentiation medium containing insulin compared to lean control animals (Black et al (1995) J. Cell. Biochem 58:455-463). […] To test if the resistance to differentiation of obese preadipocytes may be mediated by Foxa-2, stromal vascular cells of lean and obese mice were isolated. cultured in the presence or absence of insulin, and gene expression of Foxa-2 and Pref-1 was measured. The mPNA levels were markedly higher in stromal vascular cells of ob/ob mice compared to lean littennates. […] However, Foxa-2 induction in ob/ob preadipocytes was profoundly higher compared to wildtype cells. Furthermore, Foxa-2 expression correlated with induction of Pref-1 gene expression.

[5] = test system: Foxa-2; experiment: Immunofluorescence of subcellular distribution of endogenous Foxa-2 in HepG2 cells; assay type: cell-based; details: insulin 50 nM
Description: Immunofluorescence microscopy. Cells were fixed for 30 minutes at room temperature with 2% paraformaldehyde. For immunofluorescent detection of Foxa-1 or Foxa-2, fixed cells were incubated with respective polyclonal antibodies (1:100) (Ruiz i Altaba et al. (1993) Mech. Dev. 44: 91-108) overnight at 4° C. After washing, the cells were treated with anti rabbit IgG secondary antibody linked to Alexa Fluor 488 (Molecular Probes). Immunofluorescent staining was visualized using laser-scanning micrsocopy. To determine whether Akt-induced phosporylation of Foxa-2 has an effect on the subcellular distribution of this transcription factor, the following experiment was performed. HepG2 cells were grown to 60% confluency and endogenous Foxa-1 and Foxa-2 proteins were visualized by immunofluorescence after staining with anti Foxa-1 and Foxa-2 antibodies. Cells were either examined in the absence or presence of insulin (50 nM) and/or Ly294002 or PD98059, and after transfection with either Akt1 or Akt2 expression vectors (FIG. 5B). […] Treatment of cells with MAPKK1 inhibitor PD98059 had no effect on insulin stimulated nuclear exclusion of Foxa-2. The subcellular distribution of Foxa-2 in cells that were stimulated with insulin and expressed a dominant negative form of Akt (Akt[…]) were resistant to nuclear exclusion. […]

[6] = test system: endogenous Foxa-2 activity in HepG2 cells; experiment: Endogenous Foxa-2 activity in HepG2 cells transfected with reporter construct alone; assay type: cell-based
Description: Transfections and Transactivation assay. HepG2 cells were grown to 60-70% confluence in a 24-well dish and transfected with 50 ng of each reporter gene (p6xCdx-TkLuc or pPEPCK-Luc), pCMV-β-Gal as internal reference and the expression vectors for wildtype or mutant Foxa-1 and Foxa-2 and human Akt1/Akt2 using the transfection reagent Fugene6 (Roche). Cells were grown for 48 hours and luciferase activity was measured using the Luciferase Detection System (Promega). Luciferase was normalized for transfection efficiency by β-galactosidase activity. […] To determine whether insulin decreases endogenous Foxa-2 activity in HepG2 cells, cells were transfected with the reporter construct alone and Foxa-2 activity was measured after stimulation with insulin and PI3-kinase or MAPKK1 inhibitors. […] This decrease in activity was ablated when cells were coincubated with Ly294002 but not with PD98059 (FIG. 10b).

insulin: Insulin was from Sigma; hormone used as stimulus
expression of Pref-1, Hk-2, m2Pk, Glut-4 and Ucp-2/3 [1]: upregulation | increase in nuclear Foxa-2 levels ([2]; in response to insulin stimulation, within 5-20 minutes): > 20 fold | change in nuclear Foxa-2 expression ([2]; livers exposed to low (fasting) vs high (postprandial) insulin levels): > 20 fold | nuclear Foxa-2 level ([2]; perfusion with 2.0 ng/ml insulin, 20 minutes): barely detectable levels | mRNA levels of Pepck, G6pc and Igfbp-1 [3]: significantly reduced | expression of Foxa-2 [4]: markedly increased | subcellular localization of endogenous Foxa-2 [5]: efficiently excluded from the nucleus | decrease of Foxa-2 activity ([6]; 500 nM insulin): 80% | Foxa-2 activity, dose dependence ([6]; insulin stimulation): dose-dependent decrease
